Reference: patent US20260176320A1, “MODULATORS OF G-PROTEIN COUPLED RECEPTORS” (priority 2018, published 2026)
pEC50: −log10 of the molar value. Like-named read-outs stand apart in the source and are kept apart here.

Legend:
Format in all cases: cell-based
[1] = target: T1, GLP-1R (Homo sapiens, UniProt P43220); assay: HitHunter cAMP assay (GLP-1R); conditions: cAMP; for Emax: read-out: (Emax) GLP-1R
Summary of the method: (§1)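 Suspension cells expressing each receptor (10,000 per well) in HBSS with 10 mM HEPES, 625 μM IBMX and 0.2% BSA were treated with a 22-point 2-fold agonist series in duplicate for 30 minutes at room temperature. cAMP was detected by antibody immunocompetition with luminescence read after overnight incubation.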

[2] = target: T2, GIP-R (Homo sapiens, UniProt P48546); assay: HitHunter cAMP assay (GIP-R); conditions: cAMP; for Emax: read-out: (Emax) GIP-R; for Emax at 1 µM: read-out: (Emax) GIP-R at 1 μM, Table 3
T2 sequence (P48546 22-466): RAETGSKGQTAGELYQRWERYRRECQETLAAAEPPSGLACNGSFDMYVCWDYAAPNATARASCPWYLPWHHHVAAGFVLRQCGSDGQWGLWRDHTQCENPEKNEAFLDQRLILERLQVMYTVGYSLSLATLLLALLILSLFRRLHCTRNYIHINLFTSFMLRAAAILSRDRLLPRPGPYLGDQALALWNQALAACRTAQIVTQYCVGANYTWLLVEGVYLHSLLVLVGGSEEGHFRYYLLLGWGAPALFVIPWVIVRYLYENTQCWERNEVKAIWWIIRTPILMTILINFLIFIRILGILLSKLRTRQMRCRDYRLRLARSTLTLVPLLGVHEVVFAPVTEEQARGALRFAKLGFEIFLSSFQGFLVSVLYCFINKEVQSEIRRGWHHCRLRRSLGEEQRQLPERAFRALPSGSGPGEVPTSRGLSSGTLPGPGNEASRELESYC
Summary of the method: as §1

[3] = target: T1, GLP-1R; assay: PathHunter β-arrestin assay
Summary of the method: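 Cells seeded overnight, then medium replaced with medium containing 0.2% BSA; agonists added as 22-point 2-fold DMSO dilution series in duplicate and incubated 90 min at 37 °C, 5% CO2. After addition of detection solution, plates sat 3 h at room temperature in the dark; luminescence read.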

[4] = Table 3, read-out: EC50 GLP-1R/nM
[5] = Table 3A, read-out: EC50 GLP-1R/nM
[6] = Table 3, read-out: EC50 GIP-R/nM
[7] = Table 3A, read-out: EC50 GIP-R/nM
[8] = PathHunter β-arrestin assay, read-out: β-arrestin activity EC50

T1 sequence (P43220 24-463): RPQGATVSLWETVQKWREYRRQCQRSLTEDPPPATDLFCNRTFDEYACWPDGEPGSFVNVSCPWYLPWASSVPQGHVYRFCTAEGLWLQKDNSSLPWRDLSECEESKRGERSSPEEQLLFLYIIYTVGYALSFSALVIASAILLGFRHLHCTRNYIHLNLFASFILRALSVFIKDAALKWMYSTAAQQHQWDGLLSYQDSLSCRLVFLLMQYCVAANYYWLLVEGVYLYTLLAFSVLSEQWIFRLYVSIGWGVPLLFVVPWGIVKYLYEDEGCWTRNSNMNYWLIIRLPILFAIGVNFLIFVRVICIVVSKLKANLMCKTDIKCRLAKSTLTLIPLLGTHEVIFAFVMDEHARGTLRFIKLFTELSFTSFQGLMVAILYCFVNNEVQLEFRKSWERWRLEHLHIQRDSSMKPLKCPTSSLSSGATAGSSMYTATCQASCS

With `CC[C@H](C)[C@H](NC(=O)[C@H](CO)NC(=O)[C@H](Cc1ccc(O)cc1)NC(=O)[C@H](CC(=O)O)NC(=O)[C@H](CO)NC(=O)[C@@H](NC(=O)[C@H](Cc1ccccc1)NC(=O)[C@@H](NC(=O)CNC(=O)[C@H](CCC(=O)O)NC(=O)CC(=O)NCCCN1C(=O)CSC1=O)[C@@H](C)O)[C@@H](C)O)C(=O)N[C@@H](Cc1ccc(O)cc1)C(=O)N[C@@H](CC(C)C)C(=O)N[C@@H](CC(=O)O)C(=O)N[C@@H](CCCCN)C(=O)N[C@@H](CCC(N)=O)C(=O)N[C@@H](C)C(=O)N[C@@H](C)C(=O)NC(C)(C)C(=O)N[C@@H](CCC(=O)O)C(=O)N[C@@H](Cc1ccccc1)C(=O)N[C@H](C(=O)N[C@@H](CC(N)=O)C(=O)N[C@@H](Cc1c[nH]c2ccccc12)C(=O)N[C@@H](CC(C)C)C(=O)N[C@@H](CC(C)C)C(=O)N[C@@H](C)C(=O)NCC(=O)NCC(=O)N1CCC[C@H]1C(=O)N[C@@H](CO)C(=O)N[C@@H](CO)C(=O)NCC(=O)N[C@@H](C)C(=O)N1CCC[C@H]1C(=O)N1CCC[C@H]1C(=O)N1CCC[C@H]1C(=O)N[C@@H](CO)C(=O)N[C@@H](CCCCN)C(N)=O)C(C)C` [Compound 166] the EC50 ([1]; EC50 GLP-1R/nM, Table 3) was < 0.1 nM, the EC50 ([1]; EC50 GLP-1R/nM, Table 3A) was < 0.1 nM and the Emax ([1]; Table 3) was 109%. For the same compound, the Emax ([1]; Table 3A) was 109%, the Emax ([2]; Table 3) was 77 to 84% and the Emax ([2]; Table 3A) was 77 to 84%. The EC50 ([2]; read-out: EC50 GIP-R/nM, Table 3) was 1 to 100 nM, the EC50 ([2]; read-out: EC50 GIP-R/nM, Table 3A) was 1 to 100 nM and the pEC50 [3] was < 6.00.

With `CC[C@H](C)[C@H](NC(=O)[C@H](CO)NC(=O)[C@H](Cc1ccc(O)cc1)NC(=O)[C@H](CC(=O)O)NC(=O)[C@H](CO)NC(=O)[C@@H](NC(=O)[C@H](Cc1ccccc1)NC(=O)[C@@H](NC(=O)CNC(=O)[C@H](CCC(=O)O)NC(=O)/C=C/C(=O)NCCN1C(=O)CSC1=O)[C@@H](C)O)[C@@H](C)O)C(=O)N[C@@H](Cc1ccc(O)cc1)C(=O)N[C@@H](CC(C)C)C(=O)N[C@@H](CC(=O)O)C(=O)N[C@@H](CCCCN)C(=O)N[C@@H](CCC(N)=O)C(=O)N[C@@H](C)C(=O)N[C@@H](C)C(=O)NC(C)(C)C(=O)N[C@@H](CCC(=O)O)C(=O)N[C@@H](Cc1ccccc1)C(=O)N[C@H](C(=O)N[C@@H](CC(N)=O)C(=O)N[C@@H](Cc1c[nH]c2ccccc12)C(=O)N[C@@H](CC(C)C)C(=O)N[C@@H](CC(C)C)C(=O)N[C@@H](C)C(=O)NCC(=O)NCC(=O)N1CCC[C@H]1C(=O)N[C@@H](CO)C(=O)N[C@@H](CO)C(=O)NCC(=O)N[C@@H](C)C(=O)N1CCC[C@H]1C(=O)N1CCC[C@H]1C(=O)N1CCC[C@H]1C(=O)N[C@@H](CO)C(=O)N[C@@H](CCCCN)C(N)=O)C(C)C` [Compound 167] the Emax ([1]; Table 3) was 94 to 99%, the EC50 [1, 4] was 0.1 to 10 nM and the Emax ([1]; Table 3A) was 94 to 99%. For the same compound, the EC50 [1, 5] was 0.1 to 10 nM, the EC50 [2, 6] was > 1000 nM and the EC50 [2, 7] was > 1000 nM. The Emax at 1 µM [2] was < 1% and the pEC50 [3, 8] was < 6.00.

`CC[C@H](C)[C@H](NC(=O)[C@H](CO)NC(=O)[C@H](Cc1ccc(O)cc1)NC(=O)[C@H](CC(=O)O)NC(=O)[C@H](CO)NC(=O)[C@@H](NC(=O)[C@H](Cc1ccccc1)NC(=O)[C@@H](NC(=O)CNC(=O)[C@H](CCC(=O)O)NC(=O)C[S+]([O-])CC(=O)NCCN1C(=O)CSC1=O)[C@@H](C)O)[C@@H](C)O)C(=O)N[C@@H](Cc1ccc(O)cc1)C(=O)N[C@@H](CC(C)C)C(=O)N[C@@H](CC(=O)O)C(=O)N[C@@H](CCCCN)C(=O)N[C@@H](CCC(N)=O)C(=O)N[C@@H](C)C(=O)N[C@@H](C)C(=O)NC(C)(C)C(=O)N[C@@H](CCC(=O)O)C(=O)N[C@@H](Cc1ccccc1)C(=O)N[C@H](C(=O)N[C@@H](CC(N)=O)C(=O)N[C@@H](Cc1c[nH]c2ccccc12)C(=O)N[C@@H](CC(C)C)C(=O)N[C@@H](CC(C)C)C(=O)N[C@@H](C)C(=O)NCC(=O)NCC(=O)N1CCC[C@H]1C(=O)N[C@@H](CO)C(=O)N[C@@H](CO)C(=O)NCC(=O)N[C@@H](C)C(=O)N1CCC[C@H]1C(=O)N1CCC[C@H]1C(=O)N1CCC[C@H]1C(=O)N[C@@H](CO)C(=O)N[C@@H](CCCCN)C(N)=O)C(C)C` (stereo partly drawn) [Compound 170] was tested, and the Emax ([1]; Table 3) was 99%, the EC50 [1, 4] was 1 to 10 nM and the Emax ([1]; Table 3A) was 99%. The EC50 [1, 5] was 1 to 10 nM, the EC50 [2, 6] was > 1000 nM and the EC50 [2, 7] was > 1000 nM. The Emax at 1 µM [2] was 5 to 8% and the pEC50 [3, 8] was < 6.00.

`CC[C@H](C)[C@H](NC(=O)[C@H](CO)NC(=O)[C@H](Cc1ccc(O)cc1)NC(=O)[C@H](CC(=O)O)NC(=O)[C@H](CO)NC(=O)[C@@H](NC(=O)[C@H](Cc1ccccc1)NC(=O)[C@@H](NC(=O)CNC(=O)[C@H](CCC(=O)O)NC(=O)CNC(=O)CCCCN1C(=O)CSC1=O)[C@@H](C)O)[C@@H](C)O)C(=O)N[C@@H](Cc1ccc(O)cc1)C(=O)N[C@@H](CC(C)C)C(=O)N[C@@H](CC(=O)O)C(=O)N[C@@H](CCCCN)C(=O)N[C@@H](CCC(N)=O)C(=O)N[C@@H](C)C(=O)N[C@@H](C)C(=O)NC(C)(C)C(=O)N[C@@H](CCC(=O)O)C(=O)N[C@@H](Cc1ccccc1)C(=O)N[C@H](C(=O)N[C@@H](CC(N)=O)C(=O)N[C@@H](Cc1c[nH]c2ccccc12)C(=O)N[C@@H](CC(C)C)C(=O)N[C@@H](CC(C)C)C(=O)N[C@@H](C)C(=O)NCC(=O)NCC(=O)N1CCC[C@H]1C(=O)N[C@@H](CO)C(=O)N[C@@H](CO)C(=O)NCC(=O)N[C@@H](C)C(=O)N1CCC[C@H]1C(=O)N1CCC[C@H]1C(=O)N1CCC[C@H]1C(=O)N[C@@H](CO)C(=O)N[C@@H](CCCCN)C(N)=O)C(C)C` [Compound 171] showed an Emax ([1]; Table 3) of 93 to 98%, an EC50 [1, 4] of 1 to 10 nM and an Emax ([1]; Table 3A) of 93 to 98%. The EC50 [1, 5] was 1 to 10 nM, the EC50 [2, 6] was > 1000 nM and the EC50 [2, 7] was > 1000 nM. For the same compound, the Emax at 1 µM [2] was 6.5% and the pEC50 [3, 8] was < 6.00.

In the case of `CC[C@H](C)[C@H](NC(=O)[C@H](CO)NC(=O)[C@H](Cc1ccc(O)cc1)NC(=O)[C@H](CC(=O)O)NC(=O)[C@H](CO)NC(=O)[C@@H](NC(=O)[C@H](Cc1ccccc1)NC(=O)[C@@H](NC(=O)CNC(=O)[C@H](CCC(=O)O)NC(=O)CCNC(=O)CCCN1C(=O)CSC1=O)[C@@H](C)O)[C@@H](C)O)C(=O)N[C@@H](Cc1ccc(O)cc1)C(=O)N[C@@H](CC(C)C)C(=O)N[C@@H](CC(=O)O)C(=O)N[C@@H](CCCCN)C(=O)N[C@@H](CCC(N)=O)C(=O)N[C@@H](C)C(=O)N[C@@H](C)C(=O)NC(C)(C)C(=O)N[C@@H](CCC(=O)O)C(=O)N[C@@H](Cc1ccccc1)C(=O)N[C@H](C(=O)N[C@@H](CC(N)=O)C(=O)N[C@@H](Cc1c[nH]c2ccccc12)C(=O)N[C@@H](CC(C)C)C(=O)N[C@@H](CC(C)C)C(=O)N[C@@H](C)C(=O)NCC(=O)NCC(=O)N1CCC[C@H]1C(=O)N[C@@H](CO)C(=O)N[C@@H](CO)C(=O)NCC(=O)N[C@@H](C)C(=O)N1CCC[C@H]1C(=O)N1CCC[C@H]1C(=O)N1CCC[C@H]1C(=O)N[C@@H](CO)C(=O)N[C@@H](CCCCN)C(N)=O)C(C)C` [Compound 172], the EC50 ([1]; EC50 GLP-1R/nM, Table 3) was 1 to 10 nM, the EC50 ([1]; EC50 GLP-1R/nM, Table 3A) was 1 to 10 nM and the Emax ([1]; Table 3) was 98 to 101%. For the same compound, the Emax ([1]; Table 3A) was 98 to 101%, the EC50 ([2]; EC50 GIP-R/nM, Table 3) was 10 to 100 nM and the EC50 ([2]; EC50 GIP-R/nM, Table 3A) was 10 to 100 nM. For the same compound, the Emax ([2]; Table 3) was 63 to 71%, the Emax ([2]; Table 3A) was 63 to 71% and the pEC50 [3] was < 6.00.

Work on `CCCCCCCCCCCCCCCC(=O)N[C@@H](CCC(=O)NCCCC[C@H](NC(=O)[C@H](CO)NC(=O)[C@@H]1CCCN1C(=O)[C@@H]1CCCN1C(=O)[C@@H]1CCCN1C(=O)[C@H](C)NC(=O)CNC(=O)[C@H](CO)NC(=O)[C@H](CO)NC(=O)[C@@H]1CCCN1C(=O)CNC(=O)CNC(=O)[C@H](C)NC(=O)[C@H](CC(C)C)NC(=O)[C@H](CC(C)C)NC(=O)[C@H](Cc1c[nH]c2ccccc12)NC(=O)[C@H](CC(N)=O)NC(=O)[C@@H](NC(=O)[C@H](Cc1ccccc1)NC(=O)[C@H](CCC(=O)O)NC(=O)C(C)(C)NC(=O)[C@H](C)NC(=O)[C@H](C)NC(=O)[C@H](CCC(N)=O)NC(=O)[C@H](CCCCN)NC(=O)[C@H](CC(=O)O)NC(=O)[C@H](CC(C)C)NC(=O)[C@H](Cc1ccc(O)cc1)NC(=O)[C@@H](NC(=O)[C@H](CO)NC(=O)[C@H](Cc1ccc(O)cc1)NC(=O)[C@H](CC(=O)O)NC(=O)[C@H](CO)NC(=O)[C@@H](NC(=O)[C@H](Cc1ccccc1)NC(=O)[C@@H](NC(=O)CNC(=O)[C@H](CCC(=O)O)NC(=O)CSCC(=O)NCCN1C(=O)c2ccccc2C1=O)[C@@H](C)O)[C@@H](C)O)[C@@H](C)CC)C(C)C)C(N)=O)C(=O)O` [Compound 173] yielded an EC50 ([1]; EC50 GLP-1R/nM, Table 3) of 1 to 10 nM, an EC50 ([1]; EC50 GLP-1R/nM, Table 3A) of 1 to 10 nM and an Emax ([1]; Table 3) of 90 to 105%. The Emax ([1]; Table 3A) was 90 to 105%, the EC50 ([2]; EC50 GIP-R/nM, Table 3) was 0.1 to 1 nM and the EC50 ([2]; EC50 GIP-R/nM, Table 3A) was 0.1 to 1 nM. For the same compound, the Emax ([2]; Table 3) was 92 to 111%, the Emax ([2]; Table 3A) was 92 to 111% and the pEC50 [3] was < 6.00.
